From PMC5520057, “Modulation of nongenomic activation of PI3K signalling by tetramerization of N-terminally-cleaved RXRα” (Nature Communications, 2017)

Columns and labels:
tRXRα/L433D = experiment: Subcellular localization of tRXRα/L433D, immunostaining; format: cell-based; conditions: MCF-7 cells; K-80003 (5 × 10^−6 M) for 3 h, then TNFα (10 ng ml^−1) for 30 min
Procedure: (§1) Cells mounted on glass slides or tumour tissue frozen sections (5-μm-thick) were washed with PBS and fixed in 4% paraformaldehyde (PFA) for 15 min and permeabilized with PBS containing 0.1% Triton X-100 for 15 min. Fixed cells or tumour tissues were blocked with 5 mg ml^−1 BSA in PBS for 30 min at room temperature, followed with incubation with primary antibodies for 3 h and secondary antibodies at room temperature for 1 h and co-stained with 4′6′-diamidino-2-phenylindole (DAPI) to visualize nuclei. The images were taken under an LSM-510 confocal laser scanning microscope system (Carl Zeiss).

tRXRα [1] = experiment: Subcellular localization of tRXRα, immunostaining; format: cell-based; conditions: MCF-7 cells; K-80003 (5 × 10^−6 M) for 3 h, then TNFα (10 ng ml^−1) for 30 min
Procedure: as §1

RXRα-LBD/L433D = experiment: Non-denaturing gel electrophoresis, L433D mutant; format: biochemical, human; conditions: K-80003 (20 μM), 3 h at 4 °C
Procedure: (§2) The human RXRα LBD (residues Thr223 to Thr462) cloned as an N-terminal histidine-tagged fusion protein in pET15b expression vector was expressed in Escherichia coli BL21 strain (Stratagene). After sonication, cell extract was incubated with the His60 Ni Superflow resin, and His-tagged RXRα-LBD-resin complexes were washed, eluted and concentrated to 5 mg ml^−1 for subsequent trails. For crystallization experiment, bovine thrombin (Sigma) was used to cleave the His tag from the purified His-tagged RXRα-LBD. The resulting His tag was removed on the Resource-Q column (GE) using 0.1–1 M NaCl gradient and the Tris-Cl pH 8 buffer. RXRα-LDB was further purified using gel filtration on a Superdex 200 2660 column (GE) pre-equilibrated with the 75 mM NaCl, 20 mM Tris-Cl buffer (pH 8).

RXRα-LBD [2] = biological target: T1, RXRα-LBD (Homo sapiens, UniProt P19793); experiment: Gel filtration chromatography, RXRα-LBD; format: biochemical; conditions: HiLoad 16/600 Superdex 200 pg, 50 mM Tris-Cl (pH 7.4), 200 mM NaCl, 1 ml min^−1; 2 h incubation; one of three similar experiments
T1 construct: The human RXRα LBD (residues Thr223 to Thr462); made in house; host or cells: Escherichia coli BL21
T1 sequence (P19793 223-462): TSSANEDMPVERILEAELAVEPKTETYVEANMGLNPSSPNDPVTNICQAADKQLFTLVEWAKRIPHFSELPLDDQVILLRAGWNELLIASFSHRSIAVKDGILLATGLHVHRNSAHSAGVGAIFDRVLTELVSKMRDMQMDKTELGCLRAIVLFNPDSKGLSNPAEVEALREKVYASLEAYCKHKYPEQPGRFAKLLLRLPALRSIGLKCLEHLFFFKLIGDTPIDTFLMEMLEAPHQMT
Procedure: as §2

p85α / tRXRα interaction = experiment: coIP, p85α with tRXRα; format: cell-based; conditions: conclusion from structure and crosslinking
Procedure: (§4) For coIP assay[29], HEK293T cells grown in 10 cm dishes were transfected with various plasmids. Cells were lysed in 1 ml of lysis buffer (20 mM Tris (pH 7.5), 150 mM NaCl, 1% Triton X-100, 1 mM EDTA, 30 mM NaF, 2 mM sodium pyrophosphate) with a cocktail of proteinase inhibitors (Roche). Lysates were incubated with the appropriate antibody for 12 h at 4 °C and subsequently incubated with protein A-Sepharose beads for 1 h. The immunoprecipitates were collected and washed three times with lysis buffer. The protein–antibody complexes recovered on beads were subjected to immunoblotting using appropriate antibodies after separation by SDS-PAGE. Input represents 5% of cell lysates used for coIP assays.

PyMT mammary tumour = experiment: MMTV-PyMT transgenic mice, mammary tumour; format: in vivo; conditions: 4-week old MMTV-PyMT mice; diet with K-80003 (100 mg kg^−1) for 4 weeks
Procedure: For nude mice xenograft study, Myc-RXRα and Myc-tRXRα cloned into pcdna3.0 vector were stably transfected into MCF-7 cells, and the resulting stable clones and control clone (2 × 10^6 cells in 100 μl) were injected subcutaneously into nude mice (BALB/c, SPF grade, 16–18 g, 4–5-week old). For drug treatment, mice were intraperitoneally injected (i.p.) daily with K-80003 (20 mg kg^−1) diluted in Tween-80 or vehicle (tween-80). Body weight and tumour size were measured every 2 days. Mice were killed after 12-day drug treatment and the tumours removed for various assessments. For MMTV-PyMT transgenic mouse study, 4-week old female mice of a transgenic mouse on the FVB/N genetic background expressing the PyMT oncogene under the control of MMTV LTR promoter[40] were fed with diet containing with or without K-80003 (100 mg kg^−1) for 4 weeks. Estimation of tumour appearance was performed by palpation once every day. Tumour tissues of left thoracic mammary glands were excised after the treatment. Portion of tissues was used to prepare extracts for western blotting, while the rest was fixed in 4% phosphate-buffered paraformaldehyde, and used for immunohistochemical staining using anti-Ki67 antibody and immunostaining using Δ197 anti-RXRα antibody. All experimentations and animal usage were performed and approved by the Animal Care and Use Committee of Xiamen University.

tRXRα [3] = experiment: BS3 crosslinking, transfected tRXRα; format: cell-based
Procedure: (§3) Cell lysates were then prepared and incubated with bis[sulfosuccinimidyl] suberate (BS3, Pierce) dissolved in dimethyl sulfoxide to a final concentration of 1 mM. The reactions were stopped with protein gel loading buffer. Samples were resolved by SDS/PAGE in 8% acrylamide gels and protein bands were visualized by western blotting.

[4] = tested on: p85α / tRXRα/F313A interaction; experiment: coIP, p85α with tRXRα/F313A; format: cell-based; conditions: HEK293T cells; K-80003 (5 × 10^−6 M) for 6 h; coIP anti-HA
Procedure: as §4

RXRα-LBD/Q275E = experiment: Non-denaturing gel electrophoresis, Q275E mutant; format: biochemical, human; conditions: K-80003 (20 μM), 3 h at 4 °C
Procedure: as §2

RXRα-LBD/R316E = experiment: Non-denaturing gel electrophoresis, R316E mutant; format: biochemical, human; conditions: 9-cis-RA (0.5 μM) or K-80003 (20 μM), 3 h at 4 °C
Procedure: as §2

RXRα-LBD [5] = biological target: T1, RXRα-LBD; experiment: Isothermal titration calorimetry (ITC), RXRα-LBD; format: binding; conditions: 25 °C, protein 50 μM in 25 mM Tris-HCl, pH 7.5, 150 mM NaCl, 0.1% DMSO, compound 1 mM
Procedure: as §2
Binding of compounds to RXRα-LBD or mutant was studied in […] at 25 °C using isothermal titration calorimetry (ITC) assay that measures the heat either released or absorbed during binding. The purified His-tagged RXRα-LBD or mutant protein (50 μM in 25 mM Tris-HCl, pH 7.5, 150 mM NaCl, 0.1% DMSO) was placed in the sample cell of MicroCal VP-ITC titration calorimeter. The compounds to be studied were diluted to a concentration of 1 mM in the same buffer. All solutions were degassed before the titrations. […] Calorimetric data were analysed using MicroCal Origin software (version 7.0).

tRXRα/F313A = experiment: BS3 crosslinking, tRXRα/F313A; format: cell-based; conditions: MCF-7 cells, 9-cis-RA (10^−7 M) or K-80003 (5 × 10^−6 M) for 6 h
Procedure: as §3

CC1=C(CC(=O)O)c2cc(F)ccc2/C1=C\c1ccc(C(C)C)cc1 [K-80003]
effect on cytoplasmic colocalization of p85α with tRXRα/L433D (tRXRα/L433D): not affected by K-80003 | effect on TNFα-induced cytoplasmic colocalization of tRXRα with p85α (tRXRα [1]): inhibited, resulting in tRXRα nuclear localization | effect on tetramerization of RXRα-LBD/L433D (RXRα-LBD/L433D): failed to bind to RXRα-LBD/L433D (Supplementary Fig. 5a) and promote its tetramerization | oligomeric state of RXRα-LBD by gel filtration (RXRα-LBD [2]): mainly existed as a tetramer | inhibition of tRXRα interaction with p85α (p85α / tRXRα interaction): inhibits tRXRα interaction with p85α by promoting tRXRα tetramerization | growth of PyMT mammary tumour (PyMT mammary tumour): potently inhibited the growth of PyMT mammary tumour | tetramerization of tRXRα with cotransfected RXRα A/B domain (tRXRα [3]; HEK293T cells, tRXRα together with RXRα-A/B, K-80003, BS3, one of three similar experiments): completely suppressed the effect of K-80003 on promoting tRXRα tetramerization | tetramerization of tRXRα (tRXRα [3]; HepG2 cells, K-80003 (5 × 10^−6 M) for 6 h, BS3 1 mM, western blotting): effectively promoted the formation of tRXRα tetramers | modulation of tRXRα/F313A interaction with p85α [4]: failed to modulate the interaction of both mutants with p85α | effect on tetramerization of Q275E mutant (RXRα-LBD/Q275E): impaired the tetramerization of respective mutants by K-80003 | effect on oligomeric state of RXRα-LBD/R316E (RXRα-LBD/R316E): exhibited mainly as a tetramer independent of the presence of either 9-cis-RA or K-80003 | N (stoichiometry) (RXRα-LBD [5]): 1.52 | oligomeric state of tRXRα/F313A (tRXRα/F313A): strong tetrameric species of tRXRα/R316E but not tRXRα/F313A independent of the presence of 9-cis-RA or K-80003
